In US11478460B2, “Diaryl substituted 6,5-fused ring compounds as C5aR inhibitors” (CHEMOCENTRYX, INC., priority 2017, dated 2022):

molecular target: C5aR (Homo sapiens (Human), UniProt P21730); experiment: Chemotaxis assay using U937 cells (C5aR mediated migration); assay type: cell-based; conditions: read-out: Mig IC50
Method in brief: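 Migration toward 0.03 nM C5a, mixed with varying compound in the lower chamber (HBSS with 1% FBS), was measured over 1.5 h at 37° C through 5 μm filters. Upper chamber held 100,000 U937 cells treated overnight with 0.5 mM cAMP; migrated cells quantified by counts or CyQuant for IC50, SDF-1α as specificity control.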

Chain of C5aR (P21730 whole entry): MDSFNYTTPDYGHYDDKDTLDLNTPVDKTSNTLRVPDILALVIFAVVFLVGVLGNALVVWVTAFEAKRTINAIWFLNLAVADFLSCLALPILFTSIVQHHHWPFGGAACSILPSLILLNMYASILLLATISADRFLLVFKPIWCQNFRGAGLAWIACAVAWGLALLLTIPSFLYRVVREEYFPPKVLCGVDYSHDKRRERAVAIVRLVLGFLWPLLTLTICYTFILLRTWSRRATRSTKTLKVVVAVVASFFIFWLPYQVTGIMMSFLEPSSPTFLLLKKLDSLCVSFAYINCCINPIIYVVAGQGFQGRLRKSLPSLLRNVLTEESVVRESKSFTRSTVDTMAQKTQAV

Row | IC50 [nM] | Compound
1 | 5 to 50 | COc1cc(-c2c3c(nn2-c2c(C)cccc2OCC(C)C)CCN(c2ncc(C(F)(F)F)cc2F)C3)ccc1NC(N)=O [Example 1.267]
2 | 5 to 50 | Cc1cc(NC(N)=O)ccc1-c1c2c(nn1-c1c(C)cccc1OCC(C)C)CCN(c1ncc(C(F)(F)F)cc1F)C2 [Example 1.268]
3 | ≤ 5 | Cc1cccc(OCC(C)C)c1-n1nc2c(c1-c1ccc(NC(N)=O)cc1Cl)CN(c1ncc(C(F)(F)F)cc1F)CC2 [Example 1.269]
4 | ≤ 5 | Cc1cccc(OCC(C)C)c1-n1nc2c(c1-c1ccc(NC(N)=O)cc1F)CN(c1ncc(C(F)(F)F)cc1F)CC2 [Example 1.270]
5 | 5 to 50 | Cc1cccc(OCC(C)C)c1-n1nc2c(c1-c1ccc(NC(N)=O)cc1)CN(c1ncccc1C(F)(F)F)CC2 [Example 1.271]
6 | ≤ 5 | Cc1cccc(OCC(C)C)c1-n1nc2c(c1-c1ccc(NC(N)=O)c(F)c1)CN(CC1CCCC1)CC2 [Example 1.272]
7 | 5 to 50 | Cc1cccc(OCC(C)C)c1-n1nc2c(c1-c1ccc(NC(N)=O)c(F)c1)CN(CC(C)C)CC2 [Example 1.273]
8 | ≤ 5 | Cc1cccc(OCC(C)C)c1-n1nc2c(c1-c1ccc(NC(N)=O)c(F)c1)CN(CC(C)(C)C)CC2 [Example 1.274]
9 | ≤ 5 | Cc1cccc(OCC(C)C)c1-n1nc2c(c1-c1ccc(NC(N)=O)c(Cl)c1)CN(c1ncc(C(F)(F)F)cc1F)CC2 [Example 1.275]
10 | ≤ 5 | Cc1cccc(OCC(C)C)c1-n1nc2c(c1-c1ccc(NC(N)=O)c(F)c1)CN(c1ncc(C(F)(F)F)cc1Cl)CC2 [Example 1.276]
11 | ≤ 5 | Cc1cccc(OCC(C)C)c1-n1nc2c(c1-c1ccc(NC(N)=O)c(F)c1)CN(Cc1ccc(C(F)(F)F)cc1C(F)(F)F)CC2 [Example 1.277]
12 | 5 to 50 | CCc1cccc(CC)c1-n1nc2c(c1-c1ccc(NC(N)=O)cc1)CN(Cc1ccc(Cl)cc1C(F)(F)F)CC2 [Example 1.278]
13 | 5 to 50 | Cc1cccc(OCC(C)C)c1-n1nc2c(c1-c1ccc(N)c(Cl)c1)CN(c1ncc(C(F)(F)F)cc1F)CC2 [Example 1.279]
14 | 5 to 50 | Cc1cccc(OCC(C)C)c1-n1nc2c(c1-c1ccc(NC(N)=O)cc1)CN(Cc1cc(Cl)ccc1OC(C)C)CC2 [Example 1.280]
15 | ≤ 5 | CCc1cccc(CC)c1-n1nc2c(c1-c1ccc(NC(N)=O)cc1)CN(C(c1ccccc1C(F)(F)F)C(C)C)CC2 (stereo not shown) [Example 1.281]
16 | 5 to 50 | CCc1cccc(CC)c1-n1nc2c(c1-c1ccc(NC(N)=O)cc1)CN(CC(C)(C)C)CC2 [Example 1.282]
17 | > 500 | CCc1cccc(CC)c1-n1nc2c(c1-c1ccc(NC(N)=O)cc1)CN(Cc1ccccn1)CC2 [Example 1.283]
18 | 5 to 50 | CCc1cccc(CC)c1-n1nc2c(c1-c1ccc(NC(N)=O)cc1)CN(Cc1cc(Cl)ccc1OC(C)C)CC2 [Example 1.284]
19 | 5 to 50 | CCc1cccc(CC)c1-n1nc2c(c1-c1ccc(NC(N)=O)cc1)CN(CC(C)(C)C(F)(F)F)CC2 [Example 1.285]
20 | 5 to 50 | CCc1cccc(CC)c1-n1nc2c(c1-c1ccc(NC(N)=O)cc1)CN(C(CC)c1ccccc1C(F)(F)F)CC2 (stereo not shown) [Example 1.286]
21 | 5 to 50 | Cc1cc(C)c(-n2nc3c(c2-c2ccc(NC(N)=O)cc2)CN(c2ncc(C(F)(F)F)cc2F)CC3)c(C)c1 [Example 1.287]
22 | ≤ 5 | Cc1cccc(OCC(C)C)c1-n1nc2c(c1-c1ccc(NC(N)=O)c(F)c1)CN(c1ncc(C(F)(F)F)cc1F)CC2 [Example 1.288]

Row | IC50 [nM] | Compound
23 | > 500 | Cc1cccc(OCC(C)C)c1-n1nc2c(c1-c1ccc(NC(=O)N(C)C)cc1)CN(c1ncc(C(F)(F)F)cc1F)CC2 [Example 1.289]
24 | 5 to 50 | CCc1cccc(CC)c1-n1nc2c(c1-c1ccc(NC(N)=O)cc1)CN(Cc1c(C)cccc1C)CC2 [Example 1.290]
25 | 5 to 50 | CCc1cccc(CC)c1-n1nc2c(c1-c1ccc(NC(N)=O)cc1)CN(Cc1cc(Cl)ccc1Cl)CC2 [Example 1.291]
26 | 5 to 50 | CCc1cccc(CC)c1-n1nc2c(c1-c1ccc(NC(N)=O)cc1)CN(Cc1cc(Cl)ccc1C(F)(F)F)CC2 [Example 1.292]
27 | 5 to 50 | CCc1cccc(CC)c1-n1nc2c(c1-c1ccc(NC(N)=O)cc1)CN(Cc1ccccc1C(F)(F)F)CC2 [Example 1.293]
28 | 5 to 50 | Cc1cccc(OCC(C)C)c1-n1nc2c(c1-c1ccc(N)c(F)c1)CN(c1ncc(C(F)(F)F)cc1F)CC2 [Example 1.294]
29 | 5 to 50 | CCc1cccc(CC)c1-n1nc2c(c1-c1ccc(NC(N)=O)cc1)CN(C(C)c1ccccc1C(F)(F)F)CC2 (stereo not shown) [Example 1.295]
30 | ≤ 5 | Cc1cnc(N2CCc3nn(-c4c(C)cccc4OCC(C)C)c(-c4ccc(NC(N)=O)cc4)c3C2)c(C(F)(F)F)c1 [Example 1.296]
31 | 5 to 50 | CCc1cccc(CC)c1-n1nc2c(c1-c1ccc(NC(N)=O)cc1)CN(Cc1c(Cl)cccc1C(F)(F)F)CC2 [Example 1.297]
32 | 50 to 500 | Cc1cccc(OCC(C)C)c1-n1nc2c(c1-c1ccc(NC(N)=O)cc1)CN(S(=O)(=O)c1ccccc1C(F)(F)F)CC2 [Example 1.298]
33 | ≤ 5 | Cc1cccc(OCC(C)C)c1-n1nc2c(c1-c1ccc(NC(N)=O)cc1)CN(Cc1c(C(F)(F)F)ccc(Cl)c1F)CC2 [Example 1.299]
34 | ≤ 5 | Cc1ccc(C(F)(F)F)c(CN2CCc3nn(-c4c(C)cccc4OCC(C)C)c(-c4ccc(NC(N)=O)cc4)c3C2)c1 [Example 1.300]
35 | 5 to 50 | CCc1cccc(CC)c1-n1nc2c(c1-c1ccc(NC(N)=O)cc1)CN(c1ncc(C(F)(F)F)cc1F)CC2 [Example 1.301]
36 | 5 to 50 | COc1ccc(Cl)c(CN2CCc3nn(-c4c(C)cccc4OCC(C)C)c(-c4ccc(NC(N)=O)cc4)c3C2)c1 [Example 1.302]
37 | 5 to 50 | Cc1cccc(OCC(C)C)c1-n1nc2c(c1-c1ccc(NC(N)=O)cc1)CN(C(C)c1ccc(C(F)(F)F)cc1)CC2 (stereo not shown) [Example 1.303]
38 | 5 to 50 | COc1ccc(CN2CCc3nn(-c4c(C)cccc4OCC(C)C)c(-c4ccc(NC(N)=O)cc4)c3C2)c(Cl)c1 [Example 1.304]
39 | 5 to 50 | COc1cc(CN2CCc3nn(-c4c(C)cccc4OCC(C)C)c(-c4ccc(NC(N)=O)cc4)c3C2)c(F)cc1Cl [Example 1.305]
40 | ≤ 5 | Cc1cccc(OCC(C)C)c1-n1nc2c(c1-c1ccc(NC(N)=O)cc1)CN(C(C)c1ccc(C(F)(F)F)cc1)CC2 (stereo not shown) [Example 1.306]
41 | 5 to 50 | Cc1cccc(OCC(C)C)c1-n1nc2c(c1-c1ccc(NC(N)=O)cc1)CN(Cc1c(F)cc(F)cc1F)CC2 [Example 1.307]
42 | ≤ 5 | Cc1ccc(CN2CCc3nn(-c4c(C)cccc4OCC(C)C)c(-c4ccc(NC(N)=O)cc4)c3C2)c(F)c1 [Example 1.308]
43 | ≤ 5 | Cc1cccc(OCC(C)C)c1-n1nc2c(c1-c1ccc(NC(N)=O)cc1)CN(Cc1cc(Cl)ccc1F)CC2 [Example 1.309]
44 | 5 to 50 | Cc1cccc(OCC(C)C)c1-n1nc2c(c1-c1ccc(NC(N)=O)cc1)CN(Cc1cc(F)ccc1F)CC2 [Example 1.310]

Row | IC50 [nM] | Compound
45 | 5 to 50 | Cc1cccc(CCC(C)C)c1-n1nc2c(c1-c1ccc(NC(N)=O)cc1)CN(c1ncc(C(F)(F)F)cc1F)CC2 [Example 1.311]
46 | ≤ 5 | Cc1ccc(CN2CCc3nn(-c4c(C)cccc4OCC(C)C)c(-c4ccc(NC(N)=O)cc4)c3C2)c(Cl)c1 [Example 1.312]
47 | 5 to 50 | Cc1cccc(OCC(C)C)c1-n1nc2c(c1-c1ccc(NC(N)=O)cc1)CN(Cc1ccccc1Cl)CC2 [Example 1.313]
48 | 5 to 50 | Cc1cccc(OCC(C)C)c1-n1nc2c(c1-c1ccc(NC(N)=O)cc1)CN(C(C)c1cccc(C(F)(F)F)c1)CC2 (stereo not shown) [Example 1.314]
49 | ≤ 5 | Cc1cccc(OCC(C)C)c1-n1nc2c(c1-c1ccc(NC(N)=O)cc1)CN(Cc1ccc(C(F)(F)F)cc1Cl)CC2 [Example 1.315]
50 | ≤ 5 | Cc1cccc(OCC(C)C)c1-n1nc2c(c1-c1ccc(NC(N)=O)cc1)CN(Cc1ccc(F)cc1F)CC2 [Example 1.316]
51 | ≤ 5 | Cc1cccc(OCC(C)C)c1-n1nc2c(c1-c1ccc(NC(N)=O)cc1)CN(c1ccc(Cl)cc1C(F)(F)F)CC2 [Example 1.317]
52 | ≤ 5 | Cc1cccc(OCC(C)C)c1-n1nc2c(c1-c1ccc(NC(N)=O)cc1)CN(c1ccc(F)cc1C(F)(F)F)CC2 [Example 1.318]
53 | ≤ 5 | Cc1cccc(OCC(C)C)c1-n1nc2c(c1-c1ccc(NC(N)=O)cc1)CN(C(C)c1cccc(C(F)(F)F)c1)CC2 (stereo not shown) [Example 1.319]
54 | ≤ 5 | Cc1cccc(OCC(C)C)c1-n1nc2c(c1-c1ccc(NC(N)=O)cc1)CN(Cc1cc(F)ccc1Cl)CC2 [Example 1.320]
55 | ≤ 5 | Cc1ccc(N2CCc3nn(-c4c(C)cccc4OCC(C)C)c(-c4ccc(NC(N)=O)cc4)c3C2)c(C(F)(F)F)c1 [Example 1.321]
56 | ≤ 5 | Cc1cccc(OCC(C)C)c1-n1nc2c(c1-c1ccc(NC(N)=O)cc1)CN(c1ncc(F)cc1C(F)(F)F)CC2 [Example 1.322]
57 | ≤ 5 | Cc1cccc(OCC(C)C)c1-n1nc2c(c1-c1ccc(NC(N)=O)cc1)CN(Cc1ccc(Cl)cc1F)CC2 [Example 1.323]
58 | ≤ 5 | Cc1cccc(OCC(C)C)c1-n1nc2c(c1-c1ccc(NC(N)=O)cc1)CN(Cc1cc(Cl)ccc1Cl)CC2 [Example 1.324]
59 | ≤ 5 | Cc1cccc(OCC(C)C)c1-n1nc2c(c1-c1ccc(NC(N)=O)cc1)CN(Cc1cc(Cl)ccc1C(F)(F)F)CC2 [Example 1.325]
60 | ≤ 5 | Cc1cccc(OCC(C)C)c1-n1nc2c(c1-c1ccc(NC(N)=O)cc1)CN(Cc1ccc(F)cc1Cl)CC2 [Example 1.326]
61 | ≤ 5 | Cc1cccc(OCC(C)C)c1-n1nc2c(c1-c1ccc(NC(N)=O)cc1)CN(Cc1ccc(Cl)cc1C(F)(F)F)CC2 [Example 1.327]
62 | ≤ 5 | Cc1cccc(OCC(C)C)c1-n1nc2c(c1-c1ccc(NC(N)=O)cc1)CN(Cc1ccc(Cl)cc1Cl)CC2 [Example 1.328]
63 | ≤ 5 | Cc1cccc(OCC(C)C)c1-n1nc2c(c1-c1ccc(NC(N)=O)cc1)CN(Cc1ccc(C(F)(F)F)cc1F)CC2 [Example 1.329]
64 | ≤ 5 | Cc1cccc(OCC(C)C)c1-n1nc2c(c1-c1ccc(NC(N)=O)cc1)CN(C(C)c1ccccc1C(F)(F)F)CC2 (stereo not shown) [Example 1.330]
